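GI50 is the concentration that inhibits growth by half. TGI denotes the concentration required for complete inhibition of growth.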
Columns and labels:
Assay in all cases: inhibition of tumour cell growth, NCI panel, 384-well format
HCT-116 colon = system: HCT-116 colon
SN12C renal = system: SN12C renal
HCT-15 colon = system: HCT-15 colon
SR leukemia = system: SR leukemia
NCI/ADR-RES ovarian = system: NCI/ADR-RES ovarian
OVCAR-5 ovarian = system: OVCAR-5 ovarian
HOP-92 NSCLC = system: HOP-92 NSCLC
BT-549 breast = system: BT-549 breast
NCI-H460 NSCLC = system: NCI-H460 NSCLC
SF-295 CNS = system: SF-295 CNS
NCI-H23 lung = system: NCI-H23 lung
UO-31 renal = system: UO-31 renal
MOLT-4 leukemia = system: MOLT-4 leukemia
OVCAR-3 ovarian = system: OVCAR-3 ovarian
786-0 renal = system: 786-0 renal
SNB-19 CNS = system: SNB-19 CNS
HOP-62 NSCLC = system: HOP-62 NSCLC
MCF7 breast = system: MCF7 breast
RPMI-8226 leukemia = system: RPMI-8226 leukemia
UACC-62 melanoma = system: UACC-62 melanoma
SNB-75 CNS = system: SNB-75 CNS
MDA-MB-435 melanoma = system: MDA-MB-435 melanoma
MDA-MB-468 breast = system: MDA-MB-468 breast
HT29 colon = system: HT29 colon
CAKI-1 renal = system: CAKI-1 renal
DU-145 prostate = system: DU-145 prostate
KM12 colon = system: KM12 colon
NCI-H522 lung = system: NCI-H522 lung
MALME-3M melanoma = system: MALME-3M melanoma
UACC-257 melanoma = system: UACC-257 melanoma
SK-MEL-5 melanoma = system: SK-MEL-5 melanoma
SF-539 CNS = system: SF-539 CNS
SK-OV-3 ovarian = system: SK-OV-3 ovarian
NCI-H322M lung = system: NCI-H322M lung
OVCAR-4 ovarian = system: OVCAR-4 ovarian
SK-MEL-28 melanoma = system: SK-MEL-28 melanoma
LOX IMVI melanoma = system: LOX IMVI melanoma
A549 NSCLC = system: A549 NSCLC
PC-3 prostate = system: PC-3 prostate
IGROV1 ovarian = system: IGROV1 ovarian
MDA-MB-231 breast = system: MDA-MB-231 breast
T-47D breast = system: T-47D breast
HS 578T breast = system: HS 578T breast
HL-60(TB) leukemia = system: HL-60(TB) leukemia
U251 glioblastoma = system: U251 glioblastoma
M14 melanoma = system: M14 melanoma
SF-268 CNS = system: SF-268 CNS
OVCAR-8 ovarian = system: OVCAR-8 ovarian
RXF 393 renal = system: RXF 393 renal
EKVX NSCLC = system: EKVX NSCLC
SW-620 colon = system: SW-620 colon
HCC-2998 colon = system: HCC-2998 colon
NCI-H226 lung = system: NCI-H226 lung
COLO 205 colon = system: COLO 205 colon
ACHN renal = system: ACHN renal
CCRF-CEM leukemia = system: CCRF-CEM leukemia
A498 renal = system: A498 renal
TK-10 renal = system: TK-10 renal

Compound: C[C@H](Nc1ncnc2nc[nH]c12)c1cc2cccc(Cl)c2c(=O)n1-c1ccccc1
- GI50 (HCT-116 colon): 28.7 µM
- TGI (HCT-116 colon): > 100 µM
- GI50 (SN12C renal): 3.25 µM
- TGI (SN12C renal): > 100 µM
- GI50 (HCT-15 colon): 35.2 µM
- TGI (HCT-15 colon): > 100 µM
- GI50 (SR leukemia): 14 µM
- TGI (SR leukemia): 40.1 µM
- GI50 (NCI/ADR-RES ovarian): > 100 µM
- TGI (NCI/ADR-RES ovarian): > 100 µM
- GI50 (OVCAR-5 ovarian): 32.9 µM
- TGI (OVCAR-5 ovarian): > 100 µM
- GI50 (HOP-92 NSCLC): 2.31 µM
- TGI (HOP-92 NSCLC): 77.7 µM
- GI50 (BT-549 breast): 1.29 µM
- TGI (BT-549 breast): 36.6 µM
- GI50 (NCI-H460 NSCLC): 15.9 µM
- TGI (NCI-H460 NSCLC): > 100 µM
- GI50 (SF-295 CNS): 4.95 µM
- TGI (SF-295 CNS): > 40.2 µM
- GI50 (NCI-H23 lung): 25.9 µM
- TGI (NCI-H23 lung): > 100 µM
- GI50 (UO-31 renal): 3.89 µM
- TGI (UO-31 renal): > 93.1 µM
- GI50 (MOLT-4 leukemia): 2.37 µM
- TGI (MOLT-4 leukemia): 12.5 µM
- GI50 (OVCAR-3 ovarian): 3.65 µM
- TGI (OVCAR-3 ovarian): > 48.4 µM
- GI50 (786-0 renal): 2.8 µM
- TGI (786-0 renal): > 64.9 µM
- GI50 (SNB-19 CNS): 44.5 µM
- TGI (SNB-19 CNS): > 100 µM
- GI50 (HOP-62 NSCLC): 30.7 µM
- TGI (HOP-62 NSCLC): > 100 µM
- GI50 (MCF7 breast): 4.31 µM
- TGI (MCF7 breast): > 100 µM
- GI50 (RPMI-8226 leukemia): 25.2 µM
- TGI (RPMI-8226 leukemia): > 78.7 µM
- GI50 (UACC-62 melanoma): 5.86 µM
- TGI (UACC-62 melanoma): > 64.2 µM
- GI50 (SNB-75 CNS): 0.103 µM
- TGI (SNB-75 CNS): 2.41 µM
- GI50 (MDA-MB-435 melanoma): > 100 µM
- TGI (MDA-MB-435 melanoma): > 100 µM
- GI50 (MDA-MB-468 breast): 1.23 µM
- TGI (MDA-MB-468 breast): 14.9 µM
- GI50 (HT29 colon): 18.8 µM
- TGI (HT29 colon): > 100 µM
- GI50 (CAKI-1 renal): 4.09 µM
- TGI (CAKI-1 renal): > 80 µM
- GI50 (DU-145 prostate): 24.6 µM
- TGI (DU-145 prostate): > 100 µM
- GI50 (KM12 colon): 43.2 µM
- TGI (KM12 colon): > 100 µM
- GI50 (NCI-H522 lung): 16.8 µM
- TGI (NCI-H522 lung): > 83.3 µM
- GI50 (MALME-3M melanoma): 6.18 µM
- TGI (MALME-3M melanoma): 49.8 µM
- GI50 (UACC-257 melanoma): 27 µM
- TGI (UACC-257 melanoma): > 100 µM
- GI50 (SK-MEL-5 melanoma): 18.2 µM
- TGI (SK-MEL-5 melanoma): > 85.1 µM
- GI50 (SF-539 CNS): 19.7 µM
- TGI (SF-539 CNS): > 100 µM
- GI50 (SK-OV-3 ovarian): 14.3 µM
- TGI (SK-OV-3 ovarian): > 79.2 µM
- GI50 (NCI-H322M lung): 15.5 µM
- TGI (NCI-H322M lung): > 72 µM
- GI50 (OVCAR-4 ovarian): 11.4 µM
- TGI (OVCAR-4 ovarian): 90.6 µM
- GI50 (SK-MEL-28 melanoma): 8.44 µM
- TGI (SK-MEL-28 melanoma): 98.8 µM
- GI50 (LOX IMVI melanoma): 32.5 µM
- TGI (LOX IMVI melanoma): > 100 µM
- GI50 (A549 NSCLC): 14.5 µM
- TGI (A549 NSCLC): > 90.4 µM
- GI50 (PC-3 prostate): 1.46 µM
- TGI (PC-3 prostate): > 79.5 µM
- GI50 (IGROV1 ovarian): 2.43 µM
- TGI (IGROV1 ovarian): 10.2 µM
- GI50 (MDA-MB-231 breast): 25.5 µM
- TGI (MDA-MB-231 breast): > 100 µM
- GI50 (T-47D breast): 1.6 µM
- TGI (T-47D breast): 17.6 µM
- GI50 (HS 578T breast): 3.41 µM
- TGI (HS 578T breast): 27.7 µM
- GI50 (HL-60(TB) leukemia): 3.53 µM
- TGI (HL-60(TB) leukemia): > 36.4 µM
- GI50 (U251 glioblastoma): 47.3 µM
- TGI (U251 glioblastoma): > 100 µM
- GI50 (M14 melanoma): 23.9 µM
- TGI (M14 melanoma): > 100 µM
- GI50 (SF-268 CNS): 24.7 µM
- TGI (SF-268 CNS): > 84.7 µM
- GI50 (OVCAR-8 ovarian): 25.8 µM
- TGI (OVCAR-8 ovarian): > 100 µM
- GI50 (RXF 393 renal): 0.104 µM
- TGI (RXF 393 renal): 1.3 µM
- GI50 (EKVX NSCLC): 15.2 µM
- TGI (EKVX NSCLC): > 100 µM
- GI50 (SW-620 colon): > 100 µM
- TGI (SW-620 colon): > 100 µM
- GI50 (HCC-2998 colon): 29.7 µM
- TGI (HCC-2998 colon): 92.1 µM
- GI50 (NCI-H226 lung): 33.4 µM
- TGI (NCI-H226 lung): > 100 µM
- GI50 (COLO 205 colon): 42.8 µM
- TGI (COLO 205 colon): > 100 µM
- GI50 (ACHN renal): 16.8 µM
- TGI (ACHN renal): > 100 µM
- GI50 (CCRF-CEM leukemia): 4.6 µM
- TGI (CCRF-CEM leukemia): 90.7 µM
- GI50 (A498 renal): 1.09 µM
- TGI (A498 renal): 12.8 µM
- GI50 (TK-10 renal): 15 µM
- TGI (TK-10 renal): > 100 µM
